Results published in ChEMBL document CHEMBL1130880, “Synthesis and in vitro cytotoxicity of C(20)(RS)-camptothecin analogues modified at both B (or A) and E ring” (Bioorg Med Chem Lett, 1998).
Values belong to the compound of their own block, whether it stands above or below them.

Experiments:
Format in all cases: functional, cell-based
DLD-1 = assay: Compound was evaluated for in vitro antiproliferative activity against DLD-1 human colon cancer cell line
L1210 = assay: Compound was evaluated for in vitro antiproliferative activity against L1210 mouse leukemia cell line
Caov-3 cell line = assay: Compound was evaluated for in vitro antiproliferative activity against CAOV-3 human ovarian cancer cell line
[1] = test system: KATO III stomach cancer cell line; assay: Compound was evaluated for in vitro antiproliferative activity against KATO-III human gastric cancer cell line
A 172 = assay: Compound was evaluated for in vitro antiproliferative activity against A172 human CNS cancer cell line

SMILES: CCC1(O)C(=O)OCc2c1cc1n(c2=O)Cc2cc3ccccc3nc2-1 (configuration not stated)
IC50 (DLD-1): 102 nM | IC50 (L1210): 35 nM | IC50 (Caov-3 cell line): 32 nM | IC50 [1]: 448 nM | IC50 (A 172): 29 nM

SMILES: CCOCOCCC1(O)C(=O)OCc2c1cc1n(c2=O)Cc2c-1nc1cc3c(cc1c2CCl)OCCO3 (configuration not stated)
IC50 (DLD-1): 3880 nM | IC50 (Caov-3 cell line): 3760 nM | IC50 [1]: 5920 nM

SMILES: CCOCOCCC1(O)C(=O)OCc2c1cc1n(c2=O)Cc2c-1nc1ccccc1c2CCNC(C)C (configuration not stated)
IC50 (DLD-1): 2100 nM | IC50 (L1210): 14100 nM | IC50 (Caov-3 cell line): 24 nM | IC50 [1]: 4210 nM | IC50 (A 172): 5460 nM

SMILES: COCOCCC1(O)C(=O)OCc2c1cc1n(c2=O)Cc2cc3ccccc3nc2-1 (configuration not stated)
IC50 (DLD-1): 1860 nM | IC50 (L1210): 440 nM | IC50 (Caov-3 cell line): 560 nM | IC50 [1]: 320 nM | IC50 (A 172): 2620 nM

SMILES: COCOCCC1(O)C(=O)OCc2c1cc1n(c2=O)Cc2c-1nc1cc3c(cc1c2CCl)OCCO3 (configuration not stated)
IC50 (DLD-1): 108 nM | IC50 (L1210): 307 nM | IC50 (Caov-3 cell line): 3 nM | IC50 [1]: 1460 nM | IC50 (A 172): 29 nM

SMILES: O=C1OCc2c(cc3n(c2=O)Cc2c-3nc3cc4c(cc3c2CCl)OCCO4)C1(O)CCO (configuration not stated)
IC50 (DLD-1): 55 nM | IC50 (L1210): 898 nM | IC50 (Caov-3 cell line): 10 nM | IC50 [1]: 135 nM | IC50 (A 172): 391 nM

IC50 (DLD-1): 276 nM | IC50 (L1210): 460 nM | IC50 [1]: 623 nM
SMILES: CCC1(O)C(=O)OCc2c1cc1n(c2=O)Cc2c-1nc1ccccc1c2CCNC(C)C (configuration not stated)
IC50 (Caov-3 cell line): 4 nM | IC50 (A 172): 167 nM

SMILES: CC(C)NCCc1c2c(nc3ccccc13)-c1cc3c(c(=O)n1C2)COC(=O)C3(O)CCO (configuration not stated)
IC50 (DLD-1): 619 nM | IC50 (L1210): 6730 nM | IC50 (Caov-3 cell line): 483 nM | IC50 [1]: 4400 nM | IC50 (A 172): 3560 nM

SMILES: CCC1(O)C(=O)OCc2c1cc1n(c2=O)Cc2c-1nc1cc3c(cc1c2CCl)OCCO3 (configuration not stated)
IC50 (DLD-1): 2780 nM | IC50 (L1210): 14000 nM | IC50 (Caov-3 cell line): 87 nM | IC50 [1]: 6110 nM | IC50 (A 172): 54 nM

SMILES: COCOCCC1(O)C(=O)OCc2c1cc1n(c2=O)Cc2c-1nc1ccccc1c2CCNC(C)C (configuration not stated)
IC50 (DLD-1): 549 nM | IC50 (Caov-3 cell line): 91 nM | IC50 [1]: 3270 nM | IC50 (A 172): 12200 nM
